The results in this text go back to patent US11242334B2, “Heterocyclic compounds as kinase inhibitors, compositions comprising the heterocyclic compound, and methods of use thereof” (JS INNOPHARM (SHANGHAI) LTD, priority 2017, dated 2022).

The target of assay [1] is T1, human ERK2 (Homo sapiens, UniProt P28482).
T1 construct: recombinantly expressed as GST-tagged full-length protein purified from E. coli; GST; purchased Invitrogen PV3311; host or cells: E. coli
The experiment in a line: LanthaScreen TR-FRET enzymatic assay, ERK2. Particulars: IC50 values of ERK2 biochemical activity; 5 μM ATP, 400 nM ATF2-GFP substrate. Here is the method: Compounds were tested in a LanthaScreen™ time-resolved fluorescence energy transfer (TR-FRET) enzymatic assay from Invitrogen. The assay used human ERK2 (Mitogen Activated Kinase 1, Invitrogen, Cat. PV3311) recombinantly expressed as GST-tagged full-length protein purified from E. coli and activated in vitro with MAP2K1. The substrate was a recombinant truncated version (residues 19-96) of ATF2 fused with Green Fluorescent Protein (Invitrogen, Cat. PV4445). Test compounds were prepared and diluted in DMSO in 3-fold serial dilutions to 100× of the final testing concentrations. The compounds were then further diluted to 4× by the kinase reaction buffer (Invitrogen, Cat. PV3189). The enzymatic reaction for compound testing was performed in a white 384-well polypropylene plate (Packard, Cat. 6005214) with a total reaction volume of 10 μl containing 20 ng/ml ERK2, 400 nM substrate, and 5 μM ATP that is around its Km. The assay started with loading 2.5 μl of ERK2 diluted in kinase reaction buffer to wells, followed by addition of equal volume of 4× compounds for 15-min incubation at the room temperature for pre-treatment. The enzymatic reaction was initiated by addition of 5 μl of mixture of the substrate and ATP prepared in kinase reaction buffer. After one hour reaction, 10 μl mixture of EDTA (final 10 mM) and terbium-labeled anti-pATF2 (pThr71) antibody (final 2 nM) (Invitrogen, Cat. PV4451) prepared in TR-FRET antibody dilution buffer (Invitrogen, Cat. PV3574) was added to stop the enzymatic reaction and produce TR-FRET signals. After 30 minutes of incubation at room temperature, the plate was read in Tecan Infinite F200 Pro with the following settings: Excitation 340 nm (30)/Emission1 495 nm (10)/Emission2 520 nm (25). The TR-FRET values were dimensionless numbers that were calculated as the ratio of the acceptor ([…]) signal to the donor (Terbium) signal. Percent of control was calculated as the percentage of compound-treated vs 1% DMSO vehicle-treated. The dose-response curves were generated and the ICsos were calculated by nonlinear sigmoid curve fitting using GraphPad Prism.
The IC50 values of ERK2 biochemical activity for the examples disclosed herein are listed in Table 3, A: ≤10 nM; B: >10 nM and ≤50 nM; C: >50 nM and ≤100 nM; D.>100 nM.
In general terms: In TR-FRET formats the signal depends on donor and acceptor labels being close together.

The subject of assay [2] is Colo205 cell line. In words: Colo205 cell proliferation assay (MTT assay, WST-8 readout). The class given is cell-based. Particulars: IC50 values of growth inhibition in Colo 205 cells, 72 hours. As for the experimental part:
Compounds disclosed herein were tested for the inhibition of ERK2 by a Colo205 cell proliferation assay commonly known as MTT assay. In this assay, a complete media was prepared by adding 10% fetal bovine serum to RPMI-1640 medium (Life technology). Colon cancer cells (Colo205 cell line) were added to each of 88 wells of a 96 well plate at a seeding density of 5,000 cells/well/90 μL. The cells were allowed to attach to the plate by incubating at 37° C. for 24 hours. The compound was dissolved in DMSO (SIGMA). A solution of test compound was prepared in complete media by serial dilution to obtain the following concentrations: 500 μM, 150 μM, 50 μM, 15 μM, 5 μM, 1.5 μM, 0.5 μM, 0.15 μM and 0.05 μM. The test compound solution (10 μL) was added to each of 80 cell-containing wells. The final concentrations of the compound were following: 50 μM, 15 μM, 5 μM, 1.5 μM, 0.5 μM, 0.15 μM, 0.05 μM, 0.015 μM and 0.005 μM. The final concentration of DMSO is 0.5%. To the 8 remaining cell-containing wells, only complete media (containing 0.5% DMSO) was added to form a control group in order to measure maximal proliferation. To the remaining 8 empty wells, complete media was added to for a vehicle control group in order to measure background. The plates were incubated at 37° C. for 72 hours. 10 μL WST-8 solution (DOJINDO, Cell Counting KIT-8) was added to each well. The plates were further incubated at 37° C. for 2 hours, and then read for the absorbance using a microplate reader at 450 nm.
The IC50 values of growth inhibition in Colo 205 cells for Compounds disclosed are listed in Table 3, A′: ≤0.5 μM; B′: >0.5 μM and ≤1 μM; C′: >1.0 μM and ≤5 uM; D′: >5 μM.
On the technique in general: Formazan colour is commonly taken as a measure of viable cells.

T1 sequence (P28482 whole entry): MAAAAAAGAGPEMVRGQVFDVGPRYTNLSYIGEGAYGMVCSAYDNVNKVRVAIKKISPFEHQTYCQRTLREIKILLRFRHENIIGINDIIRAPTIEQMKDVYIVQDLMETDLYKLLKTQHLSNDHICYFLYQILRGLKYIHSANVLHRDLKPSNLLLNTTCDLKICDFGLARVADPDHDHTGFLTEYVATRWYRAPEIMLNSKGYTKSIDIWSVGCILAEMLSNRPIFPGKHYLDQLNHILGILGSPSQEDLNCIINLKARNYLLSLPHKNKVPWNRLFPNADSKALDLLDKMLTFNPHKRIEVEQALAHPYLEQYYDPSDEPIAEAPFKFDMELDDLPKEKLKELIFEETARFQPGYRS

The IC50 is the point on the concentration scale where inhibition reaches its midpoint. A higher IC50 goes with a need for much substance. Turning to `Cn1cc(-c2n[nH]c3ncc(-c4ccn([C@H](CO)c5ccc(F)c(Cl)c5)c(=O)c4)cc23)cn1` [Example 108, (S)-1-(1-(3-chloro-4-fluorophenyl)-2-hydroxyethyl)-4-(3-(1-methyl-1H-pyrazol-4-yl)-1H-pyrazolo[3,4-b]pyridin-5-yl)pyridin-2(1H)-one], the IC50 is under 10 nM in assay [1] and 1000 to 5000 nM in assay [2] (Homo sapiens).

As to `O=c1cc(-c2ccc3[nH]nc(-c4ccc5nccn5c4)c3c2)ccn1[C@H](CO)c1cc(F)cc(Br)c1` [Example 129, (S)-1-(1-(3-bromo-5-fluorophenyl)-2-hydroxyethyl)-4-(3-(imidazo[1,2-a]pyridin-6-yl)-1H-indazol-5-yl)pyridin-2(1H)-one], in assay [2] (Homo sapiens), the IC50 was at most 500 nM.

Consider `Cc1cc(-c2n[nH]c3ccc(-c4ccn([C@@H](C)c5ccnc(C(F)(F)F)c5)c(=O)c4)cc23)ccn1` [Example 142A, (S)-4-(3-(2-methylpyridin-4-yl)-1H-indazol-5-yl)-1-(1-(2-(trifluoromethyl)pyridin-4-v1)ethyl)pyridin-2(1H)-one], for which the IC50 in assay [2] was in the range of 1000 to 5000 nM.

For the compound `O=c1cc(-c2ccc3[nH]nc(-c4ccc(F)cn4)c3c2)ccn1[C@H](CO)c1cc(F)cc(Br)c1` [Example 125, (S)-1-(1-(3-bromo-5-fluorophenyl)-2-hydroxyethyl)-4-(3-(5-fluoropyridin-2-yl)-1H-indazol-5-yl)pyridin-2(1H)-one], the IC50 in assay [2] (Homo sapiens) was in the range of 500 to 1000 nM.

In assay [2] (Homo sapiens), `Cc1cc(-c2n[nH]c3ccc(-c4ccn(Cc5nc(C(F)(F)F)cs5)c(=O)c4)cc23)ccn1` [Example 135] showed a half-maximal inhibitory concentration (IC50) of 1000 to 5000 nM.

Compound `O=c1cc(-c2ccc3[nH]nc(-c4ccnc(C(F)(F)F)c4)c3c2)ccn1Cc1ccnc(C(F)(F)F)c1` [Example 126, 4-(3-(2-(trifluoromethyl)pyridin-4-yl)-1H-indazol-5-yl)-1-((2-(trifluoromethyl)pyridin-4-yl)methyl)pyridin-2(1H)-one] gave an IC50 in assay [2] (Homo sapiens) of over 5000 nM.

On to `O=c1cc(-c2ccc3[nH]nc(-c4ccnc(C5CC5)c4)c3c2)ccn1Cc1ccnc(C(F)(F)F)c1` [Example 133, 4-(3-(2-cyclopropylpyridin-4-yl)-1H-indazol-5-yl)-1-((2-(trifluoromethyl)pyridin-4-yl)methyl)pyridin-2(1H)-one], for which, in assay [2] (Homo sapiens), the IC50 is 1000 to 5000 nM.

As to `O=c1cc(-c2ccc3[nH]nc(C4CCOC4)c3c2)ccn1[C@H](CO)c1cc(F)cc(Br)c1` (stereo partly drawn) [Example 150, 1-((S)-1-(3-bromo-5-fluorophenyl)-2-hydroxyethyl)-4-(3-(tetrahydrofuran-3-yl)-1H-indazol-5-yl)pyridin-2(1H)-one], the IC50 in assay [2] (Homo sapiens) fell in the range of 1000 to 5000 nM.

For the compound `Cc1cc(-c2n[nH]c3ccc(-c4ccn(Cc5cccc(C(F)(F)F)n5)c(=O)c4)cc23)ccn1` [Example 137, 4-(3-(2-methylpyridin-4-yl)-1H-indazol-5-yl)-1-((6-(trifluoromethyl)pyridin-2-yl)methyl)pyridin-2(1H)-one], the IC50 in assay [2] (Homo sapiens) lay in the range of 500 to 1000 nM.

In the case of `Cc1nc2ccc(-c3n[nH]c4ccc(-c5ccn([C@H](CO)c6cc(F)cc(Br)c6)c(=O)c5)cc34)cn2n1` [Example 130, (S)-1-(1-(3-bromo-5-fluorophenyl)-2-hydroxyethyl)-4-(3-(2-methyl-[1,2,4]triazolo[1,5-a]pyridin-6-yl)-1H-indazol-5-yl)pyridin-2(1H)-one], the IC50 in assay [2] (Homo sapiens) is at most 500 nM.

The compound `CCc1cc(-c2n[nH]c3ccc(-c4ccn(Cc5ccnc(C(F)(F)F)c5)c(=O)c4)cc23)ccn1` [Example 132, 4-(3-(2-ethylpyridin-4-yl)-1H-indazol-5-yl)-1-((2-(trifluoromethyl)pyridin-4-yl)methyl)pyridin-2(1H)-one] displayed an IC50 in assay [2] (Homo sapiens) of 1000 to 5000 nM.

For `O=c1cc(-c2ccc3[nH]nc(N4CCC(O)C4)c3c2)ccn1[C@H](CO)c1cc(F)cc(Br)c1` (stereo partly drawn) [Example 151, 1-((S)-1-(3-bromo-5-fluorophenyl)-2-hydroxyethyl)-4-(3-(3-hydroxypyrrolidin-1-yl)-1H-indazol-5-yl)pyridin-2(1H)-one], in assay [2] (Homo sapiens), the IC50 is 1000 to 5000 nM.

As for `Cc1cc(Cn2ccc(-c3ccc4[nH]nc(-c5ccnc(C)c5)c4c3)cc2=O)ccn1` [Example 127, 4-(3-(2-methylpyridin-4-yl)-1H-indazol-5-yl)-1-((2-methylpyridin-4-yl)methyl)pyridin-2(1H)-one], in assay [2] (Homo sapiens), the IC50 lay within 1000 to 5000 nM.

In assay [2] (Homo sapiens), `Cc1cc(-c2n[nH]c3ccc(-c4ccn(Cc5cccnc5C(F)(F)F)c(=O)c4)cc23)ccn1` [Example 136, 4-(3-(2-methylpyridin-4-yl)-1H-indazol-5-yl)-1-((2-(trifluoromethyl)pyridin-3-yl)methyl)pyridin-2(1H)-one] had an IC50 of 1000 to 5000 nM.

In assay [2] (Homo sapiens), `Cc1cc(-c2n[nH]c3ccc(-c4ccn([C@H](C)c5ccnc(C(F)(F)F)c5)c(=O)c4)cc23)ccn1` (single isomer, unassigned) [Example 142B] gave an IC50 of at most 500 nM.

Compound `Cc1cc(-c2n[nH]c3ccc(-c4ccn(Cc5cc(C(F)(F)F)no5)c(=O)c4)cc23)ccn1` [Example 139, 4-(3-(2-methylpyridin-4-yl)-1H-indazol-5-yl)-1-((3-(trifluoromethyl)isoxazol-5-yl)methyl)pyridin-2(1H)-one] displayed an IC50 in assay [2] (Homo sapiens) of 1000 to 5000 nM.

`O=c1cc(-c2ccc3[nH]nc(-c4ccc5ncnn5c4)c3c2)ccn1[C@H](CO)c1cc(F)cc(Br)c1` [Example 128, (S)-4-(3-([1,2,4]triazolo[1,5-a]pyridin-6-yl)-1H-indazol-5-yl)-1-(1-(3-bromo-5-fluorophenyl)-2-hydroxyethyl)pyridin-2(1H)-one] came in with an IC50 in assay [2] (Homo sapiens) of at most 500 nM.

The compound `CNc1n[nH]c2ccc(-c3ccn([C@H](CO)c4cc(F)cc(Br)c4)c(=O)c3)cc12` [Example 141, (S)-1-(1-(3-bromo-5-fluorophenyl)-2-hydroxyethyl)-4-(3-(methylamino)-1H-indazol-5-yl)pyridin-2(1H)-one] returned an IC50 in assay [2] (Homo sapiens) of 1000 to 5000 nM.

For the compound `Cc1cc(-c2n[nH]c3ccc(-c4ccn([C@H](CO)c5ccnc(C(F)(F)F)c5)c(=O)c4)cc23)ccn1` [Example 134, (S)-1-(2-hydroxy-1-(2-(trifluoromethyl)pyridin-4-yl)ethyl)-4-(3-(2-methylpyridin-4-yl)-1H-indazol-5-yl)pyridin-2(1H)-one], the IC50 in assay [2] (Homo sapiens) was 1000 to 5000 nM.

In assay [2] (Homo sapiens), `Cc1cc(-c2n[nH]c3ccc(-c4ccn(CCN5CCOCC5)c(=O)c4)cc23)ccn1` [Example 54, 4-(3-(2-methylpyridin-4-yl)-1H-indazol-5-yl)-1-(2-morpholinoethyl)pyridin-2(1H)-one] displayed an IC50 of over 5000 nM.

Regarding `Cc1nn(C)cc1-c1n[nH]c2ccc(-c3ccn([C@H](CO)c4cc(F)cc(Br)c4)c(=O)c3)cc12` [Example 138, (S)-1-(1-(3-bromo-5-fluorophenyl)-2-hydroxyethyl)-4-(3-(1,3-dimethyl-1H-pyrazol-4-yl)-1H-indazol-5-yl)pyridin-2(1H)-one], the IC50 in assay [2] (Homo sapiens) lay in the range of 500 to 1000 nM.

Consider `Cc1cc(-c2n[nH]c3ccc(-c4ccn(Cc5ccc(C(F)(F)F)nc5)c(=O)c4)cc23)ccn1` [Example 131, 4-(3-(2-methylpyridin-4-yl)-1H-indazol-5-yl)-1-((6-(trifluoromethyl)pyridin-3-yl)methyl)pyridin-2(1H)-one], for which the IC50 in assay [2] (Homo sapiens) lay within 1000 to 5000 nM.
